EPA's ToxValDB 9.5
Values after ≈ are worked out from the molar mass of the structure shown.

Assays:
Homo sapiens = details: clinical
Ovis sp. = details: subchronic; duration: 8 weeks; oral; diet; no effects
Canidae = details: for NOAEL: oral
Bibionidae = details: chronic/long-term; duration: 28 days; development
Daphnia magna = details: mortality
Colinus virginianus = details: for LD50: acute, oral, mortality
Bovidae = details: subchronic, oral, diet
Gallus gallus = details: oral, diet
Sus scrofa = details: short-term, oral, diet, Not specified
Pontoscolex corethrurus = details: acute; mortality
Oryctolagus sp. = details: reproduction developmental
Mus musculus = details: acute; oral; gavage; M; ICR; clinical signs
Anas platyrhynchos = details: oral

## OC[C@@H](O)[C@@H](O)CO [Erythritol]
Homo sapiens; duration: 27 months, oral, drinking water, clinical signs
  NOAEL: 710 mg/kg-day

## COc1cc2c(c3oc4cccc(O)c4c(=O)c13)[C@@H]1C=CO[C@@H]1O2 [Sterigmatocystin]
Ovis sp.
  LEL: 0.3 mg/kg-day

## CC(=O)[O-].CC(=O)[O-].O.O.O.O.[Co+2] [Cobalt(II) acetate tetrahydrate]
Homo sapiens; duration: 22 days, oral, hematological
  LOAEL: 1 mg/kg-day

## O=C(NC(=O)c1c(F)cccc1F)Nc1ccc(Cl)cc1 [Diflubenzuron]
Canidae; chronic, duration: 1 years, Dog Other, hematological
  NOAEL: 10 mg/kg-day
Rattus norvegicus; acute, dermal, mortality
  LD50: > 2000 mg/kg
Rattus norvegicus; acute, duration: 4 hours, inhalation, mortality
  LC50: > 2.5 µg/mL
Rattus norvegicus; acute, oral, mortality
  LD50: > 4640 mg/kg

## COCCOC(=O)C(C#N)(C(=O)c1ccccc1C(F)(F)F)c1ccc(C(C)(C)C)cc1 (centres undefined) [Cyflumetofen]
Bibionidae
  NOEC: ≥ 0.064 mg/L
Cyprinus carpio; acute, duration: 96 hours, mortality
  LC50: > 0.54 µg/mL
Cyprinus carpio; chronic/long-term, duration: 28 days, growth
  NOEC: ≥ 0.072 mg/L
Daphnia magna; chronic/long-term, duration: 21 days
  NOEC: 0.065 mg/L

## Fc1ccc([C@@]2(Cn3cncn3)O[C@@H]2c2ccccc2Cl)cc1 [Epoxiconazole]
Colinus virginianus; diet
  LD50: > 907 mg/kg
Colinus virginianus
  LD50: > 2000 mg/kg
Colinus virginianus; reproduction developmental
  NOEL: 1 mg/kg-day
Rattus norvegicus; acute, mortality
  LD50: 3160 mg/kg
Rattus norvegicus; reproduction developmental
  NOAEL: 2.3 mg/kg-day

## O=C(O)CC(O)C(=O)O (centres undefined) [Malic acid]
Bovidae; no effects
  LEL: 23000 mg/kg-day
Canidae; chronic, duration: 104 weeks, M/F, Beagle, no effects
  LEL: 50000 mg/kg-day
Gallus gallus; short-term, duration: 21 days, food consumption
  LEL: 20000 mg/kg-day
Sus scrofa; duration: 28 days, M/F, no effects
  LEL: 12000 mg/kg-day

## CC(C)C [Isobutane]
Reproduction developmental, reproduction
  NOAEC: 7.12 mg/m3

## c1csc(SSc2cccs2)c1 [2-Thienyl disulfide]
Repeat dose other
  NOAEL: 0.29 mg/kg-day
Rattus norvegicus; subchronic, duration: 90 days
  NOAEL: 0.29 mg/kg-day

## Cc1csc(C(C)C)n1 [2-Isopropyl-4-methylthiazole]
Daphnia magna; acute
  LC50: 9 µg/mL (≈ 63.7 µM)
Pontoscolex corethrurus
  LC50: 194 mg/kg

## ClC1=C(Cl)[C@]2(Cl)[C@@H]3[C@@H](Cl)[C@H]4O[C@H]4[C@@H]3C1(Cl)C2(Cl)Cl [Heptachlor epoxide B]
Bovidae; F
  NOAEL: 1.5 mg/kg-day
Canidae; chronic, duration: 2 years, diet, M/F, Beagle, clinical chemistry
  NOAEL: 0.025 mg/kg-day
Gallus gallus; chronic, duration: 25 weeks, M/F, development
  NOAEL: 0.002 mg/kg-day

## CC(=O)C(C)Sc1ccoc1C (centres undefined) [3-[(2-Methylfuran-3-yl)sulfanyl]butan-2-one]
subchronic, duration: 90 days
  NOAEL: 3.76 mg/kg-day
Rattus norvegicus; subchronic, duration: 90 days, oral, diet
  NOAEL: 3.76 mg/kg-day

## O=S(=O)([O-])c1ccc(N=Nc2c(O)ccc3cc(S(=O)(=O)[O-])ccc23)cc1.[Na+].[Na+] [FD&C Yellow 6]
Canidae; chronic, duration: 7 years, F, Dog Other, no effects
  NOAEL: 500 mg/kg-day
Rattus norvegicus; reproduction developmental, duration: 28 days, oral, diet, body weight
  NOAEL: 375 mg/kg-day
Rattus norvegicus; subchronic, duration: 90 days, oral, diet, M/F, histopathology: nonneoplastic
  NOAEL: 500 mg/kg-day

## NC=O [Formamide]
Oryctolagus sp.; duration: 13 days, oral, gavage, F, New Zealand, reproduction
  NOAEL: 34 mg/kg-day

## CC1=NNC(=O)N(/N=C/c2cccnc2)C1 [Pymetrozine]
Canidae; chronic, duration: 1 years, Dog Other, clinical chemistry
  NOAEL: 0.57 mg/kg-day
Canidae; subchronic, duration: 90 days, diet, Beagle, organ weight
  NOAEL: 3 mg/kg-day
Oryctolagus sp.; histopathology: nonneoplastic
  NOAEL: 10 mg/kg-day

## C=C(/C=C\C[C@@H](O)[C@@H](O)[C@H](O)C/C=C/C=C\[C@@H](O)C[C@@H]1O[C@H](C[C@@H](O)[C@H](O)C[C@H]2O[C@H]([C@H](O)[C@H](O)CC[C@H](O)/C=C/[C@H](C)[C@@H](O)C[C@]3(O)O[C@H]([C@@H](O)[C@@H](O)CCCCCCC[C@@]45C[C@@H](C)C[C@@](C)(O4)[C@@H](CCCCCCC[C@@H](O)C[C@H](O)[C@@H](O)[C@@H](O)[C@H]4O[C@H](C[C@H](O)[C@H](O)/C(C)=C/[C@H](O)CC[C@H](O)C(=O)N/C=C/C(=O)NCCCO)[C@H](O)[C@@H](O)[C@@H]4O)O5)C[C@@H](O)[C@H]3O)C[C@@H](O)[C@@H]2O)[C@@H](O)[C@H](O)[C@H]1O)CC[C@H](O)[C@@H](O)[C@H](O)[C@H](C)C[C@H]1O[C@H](/C=C\[C@@H](O)[C@H](O)C[C@@H]2C[C@@H]3C[C@H](O2)[C@@H](CC[C@H]2O[C@H](CN)C[C@H]2O)O3)[C@@H](O)[C@H](O)[C@H]1O [Ostreocin-D]
Mus musculus
  LOAEL: 0.2 mg/kg-day

## CCc1nccnc1C(C)=O [1-(3-Ethylpyrazinyl)ethan-1-one]
Pontoscolex corethrurus
  LC50: 360 mg/kg

## CC(O)C(=O)O (centres undefined) [Lactic acid]
Gallus gallus; subchronic, duration: 42 days, Chicken, no effects
  LEL: 30000 mg/kg-day

## CCCC/C=C\CCO [3-Octen-1-ol, (3Z)-]
Pontoscolex corethrurus
  LC50: 194 mg/kg

## COc1nccnc1C [2-Methoxy-3-methylpyrazine]
Pontoscolex corethrurus
  LC50: 245 mg/kg

## N#Cc1cc(Br)c(O)c(Br)c1 [Bromoxynil]
Canidae; chronic, duration: 1 years, Dog Other, organ weight
  NOAEL: 0.3 mg/kg-day
Rattus norvegicus; developmental, development
  NOAEL: 4 mg/kg-day

## CCc1nccnc1CC [2,3-Diethylpyrazine]
Pontoscolex corethrurus
  LC50: 236 mg/kg

## CC1=C[C@H]2O[C@@H]3[C@H](O)C[C@](C)([C@@]2(CO)[C@H](O)C1=O)[C@@]31CO1 [Vomitoxin]
Sus scrofa; duration: 21 days, food consumption
  LOEL: 0.35 mg/kg-day

## CN1CCC[C@H]1c1cccnc1 [(-)-Nicotine]
Homo sapiens; injection, intravenous, clinical signs
  LOAEL: 0.0035 mg/kg-day

## CCS(=O)(=O)c1cccnc1S(=O)(=O)NC(=O)Nc1nc(OC)cc(OC)n1 [Rimsulfuron]
Anas platyrhynchos; acute, unspecified, mortality
  LD50: > 2000 mg/kg-day
Anas platyrhynchos; reproductive, feed
  NOEC: 117 mg/kg-day
Canidae; subchronic, duration: 90 days, Dog Other, body weight
  NOAEL: 9.63 mg/kg-day
Oryctolagus sp.; mortality
  NOAEL: 170 mg/kg-day
Rattus norvegicus; acute, oral, mortality
  LD50: > 5000 mg/kg-day
Rattus norvegicus; chronic, duration: 2 years, oral, body weight
  NOAEL: 11.8 mg/kg-day
Rattus norvegicus; reproduction developmental, body weight
  NOAEL: 165 mg/kg-day
